From US10774051B2, “6-membered heterocyclic derivatives and pharmaceutical composition comprising the same” (Shionogi & Co., Ltd., priority 2015, dated 2020) come the findings set out here.

pIC50: −log10 of the molar value.

As a reminder, the pIC50 is −log10 of the IC50, conventionally taken in molar units.

The first assay has as its target human P2X7 receptor (Homo sapiens, UniProt Q99572, R270H/Y155H). The assay can be described thus: Evaluation of human P2X7 receptor inhibitory activity (Yo-Pro uptake, BzATP stimulation, FLIPR TETRA). The class given is cell-based. As to conditions: 1321N1 cells stably expressing human P2X7 receptor; BzATP stimulation, Yo-Pro uptake; read-out: IC50 (antagonistic activity for the human P2X7 receptor). In a few lines:
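1321N1 cells stably expressing human P2X7 (T606C/G952A SNP variant), in HBSS buffer pH 7.4-7.5 with Yo-Pro, stimulated with BzATP; compound added 8 min after agonist. Fluorescence followed for 20 min on FLIPR; max-minus-min change gave % inhibition, IC50 by logistic fit.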
In the case of `CCc1cc2c(cc1Nc1nc(=O)c(OC)cn1Cc1ccccc1F)CCC2` [Compound I-0178], the pIC50 was 7.68.

On to `COc1cn(Cc2ccc(F)c(Cl)c2)c(Oc2cc(-c3ncco3)ccc2C)cc1=O` [Compound I-0965], for which the pIC50 was 6.36.

With `COc1cn(Cc2ccccc2)c(Nc2cccc3c2CCC3)nc1=O` [Compound I-0062], the pIC50 was 6.23.

Take `CCc1cc(F)c(OC)cc1Nc1nc(=O)c(OC)cn1Cc1cc(F)cc(F)c1` [Compound I-0817]: the pIC50 is 8.40.

Still in this assay, the particulars now being: 1321N1 cells stably expressing human P2X7 receptor; BzATP stimulation, Yo-Pro uptake; read-out: IC50 (antagonistic activity for the human P2X7 receptor), class symbol.
For `Cc1c(Cl)cccc1Nc1nc(=O)c(F)cn1Cc1ccc(F)c(F)c1` [Compound I-0471], the pIC50 is more than 8.00.

As for `CCOc1ccc(C)c(Nc2nc(=O)c(OC)cn2Cc2cccc(Cl)c2)c1` [Compound I-0456], the pIC50 was 7.00 to 8.00.

For the compound `COc1cn(Cc2cccc(C)c2)c(Nc2cccc(Cl)c2C)nc1=O` [Compound I-0044], the pIC50 is 7.00 to 8.00.

`COc1cn(Cc2cc(F)cc(F)c2)c(Nc2ccc(OC(C)C)cc2C)nc1=O` [Compound I-0531]: the pIC50 was 7.00 to 8.00.

Turning to `COc1cn(Cc2ccccc2OC(F)(F)F)c(Nc2cccc(Cl)c2C)nc1=O` [Compound I-0303], the pIC50 was 6.30 to 7.00.

In the case of `COc1cn(Cc2ccc(F)c(Cl)c2)c(Nc2cccc3[nH]c(C)cc23)nc1=O` [Compound I-0489], the pIC50 is more than 8.00.

Regarding `CCc1cc(Br)ccc1Nc1nc(=O)c(OC)cn1Cc1ccccc1` [Compound I-0101], the pIC50 was 7.00 to 8.00.

As for `COc1cn(Cc2ccc(F)c(Cl)c2)c(Nc2cc(N3CCN(C(=O)OC(C)(C)C)CC3)ccc2C)nc1=O` [Compound I-0412], the pIC50 is 6.30 to 7.00.

`COc1cn(Cc2cccc(Cl)c2)c(Nc2cc3[nH]ncc3cc2C)nc1=O` [Compound I-0490]: the pIC50 was more than 8.00.

Turning to `Cc1cc(C)c(Nc2nc(=O)c(C(=O)NCC(=O)N(C)C)cn2Cc2ccccc2)cc1C` [Compound I-0226], the pIC50 was 7.00 to 8.00.

As to `COc1cn(Cc2ccc(F)c(F)c2)c(Nc2cc3c(cc2C)OCCO3)nc1=O` [Compound I-0291], the pIC50 was 7.00 to 8.00.

Consider `COc1cn(Cc2cccc(Cl)c2)c(Nc2cccc3sccc23)nc1=O` [Compound I-0484], for which the pIC50 was 7.00 to 8.00.

Consider `COc1cn(Cc2cccc(Cl)c2)c(Nc2cc(C)c(Cl)cc2C)nc1=O` [Compound I-0172], for which the pIC50 is 7.00 to 8.00.

Turning to `COc1cn(Cc2ccccc2)c(Nc2cccc3[nH]c(-c4ccccc4)cc23)nc1=O` [Compound I-0527], the pIC50 was 6.00 to 6.30.

Regarding `COc1cn(Cc2ccccc2)c(Nc2cc(-c3nnco3)ccc2C)nc1=O` [Compound I-0240], the pIC50 is 7.00 to 8.00.

In the case of `COc1cc(C)c(Nc2nc(=O)c(OC)cn2Cc2cccc(Cl)c2)cc1C` [Compound I-0250], the pIC50 was more than 8.00.

`COc1cn(Cc2ccc(F)c(Cl)c2)c(Nc2cc(-n3c(C)ccc3C)ccc2C)nc1=O` [Compound I-0526]: the pIC50 was 7.00 to 8.00.

In the case of `COc1cn(Cc2ccc(F)c(F)c2)c(Nc2cc(C)c(C)cc2C)nc1=O` [Compound I-0277], the pIC50 was more than 8.00.

Consider `COc1cn(Cc2ccccc2OC(F)F)c(Nc2cccc(Cl)c2C)nc1=O` [Compound I-0462], for which the pIC50 is 7.00 to 8.00.

Regarding `CCc1cc(OC)ccc1Nc1nc(=O)c(OC)cn1Cc1ccc(F)cc1` [Compound I-0262], the pIC50 is more than 8.00.

Take `CCOc1cc(C)c(Nc2nc(=O)c(OC)cn2Cc2ccc(F)cc2)cc1C` [Compound I-0258]: the pIC50 was more than 8.00.

For the compound `CCc1cc(OC)ccc1Nc1nc(=O)c(OC)cn1Cc1cc(F)c(F)c(F)c1` [Compound I-0573], the pIC50 was more than 8.00.

Take `CCc1cc(OC)ccc1Nc1nc(=O)c(OC)cn1Cc1ccccc1` [Compound I-0235]: the pIC50 is 7.00 to 8.00.

The same assay, now with this note: antagonistic activity for the human P2X7 receptor; read-out: IC50.
Turning to `COc1cc(C)c(Nc2nc(=O)c(Cl)nn2Cc2cc(F)c(F)c(F)c2)cc1OC` [Compound I-1264], the pIC50 is more than 8.00.

With `COc1cn(Cc2cc(F)cc(Cl)c2)c(Nc2cc(-c3ncco3)ccc2C)nc1=O` [Compound I-0668], the pIC50 was 7.00 to 8.00.

`COc1cn(Cc2cc(F)cc(Cl)c2)c(Nc2cc(N3CCCC3=O)ccc2C)nc1=O` [Compound I-0647]: the pIC50 is 7.00 to 8.00.

As to `Cc1ccc(OC(F)F)cc1Nc1nc(=O)c(F)cn1Cc1cc(F)cc(F)c1` [Compound I-0994], the pIC50 was 7.00 to 8.00.

Take `COc1ccc(Cl)c(Nc2nc(=O)c(OC)cn2Cc2cc(F)c(F)c(F)c2)c1` [Compound I-0846]: the negative logarithm of the IC50 (pIC50) is more than 8.00.

As for `COc1cc(Nc2nc(=O)c(OC)cn2Cc2cc(F)cc(F)c2)c(C)cc1F` [Compound I-0781], the pIC50 was 7.00 to 8.00.

As for `COc1cc(C)c(Nc2nc(=O)c(OC)cn2Cc2cc(F)c(F)c(F)c2)cc1OC` [Compound I-0623], the pIC50 was more than 8.00.

For the compound `COc1nc2ccc(Nc3nc(=O)c(OC)cn3Cc3cc(F)cc(F)c3)c(C)c2s1` [Compound I-0830], the pIC50 was 7.00 to 8.00.

Regarding `Cc1nc2cc(C)c(Nc3nc(=O)c(F)cn3Cc3cc(F)c(F)c(F)c3)cc2s1` [Compound I-0937], the pIC50 is more than 8.00.

Regarding `COc1cn(Cc2cc(F)cc(Cl)c2)c(Nc2cc(-c3ccc(C)o3)ccc2C)nc1=O` [Compound I-0768], the pIC50 was 7.00 to 8.00.

Turning to `Cc1ccc(CO)cc1Nc1nc(=O)c(C)nn1Cc1cc(F)c(F)c(F)c1` [Compound I-1254], the pIC50 is more than 8.00.

With `COc1cn(Cc2ccc(F)c(Cl)c2)c(Nc2cc3nc(C)sc3cc2C)nc1=O` [Compound I-0746], the pIC50 was 7.00 to 8.00.

With `COCCn1ccc2c(C)c(Nc3nc(=O)c(F)cn3Cc3cc(F)cc(F)c3)ccc21` [Compound I-1229], the pIC50 is more than 8.00.

On to `COc1c(C)ccc(Nc2nc(=O)c(OC)cn2Cc2cc(F)cc(Cl)c2)c1C` [Compound I-0610], for which the pIC50 is 7.00 to 8.00.

Consider `COc1cn(Cc2ccc(F)c(F)c2)c(Nc2cc(S(C)(=O)=O)c(C)cc2C)nc1=O` [Compound I-0605], for which the pIC50 was 7.00 to 8.00.

In the case of `CCOc1cc(C)c(Nc2nc(=O)c(F)cn2Cc2cc(F)c(F)c(F)c2)cc1C` [Compound I-1201], the pIC50 was more than 8.00.

For the compound `COc1cn(Cc2cc(F)c(F)c(F)c2)c(Nc2cccc3[nH]c(=O)ccc23)nc1=O` [Compound I-0602], the pIC50 was 6.30 to 7.00.

On to `Cc1nc2cc(C)c(Nc3nc(=O)c(C)nn3Cc3cc(F)cc(F)c3)cc2s1` [Compound I-1260], for which the pIC50 is 7.00 to 8.00.

Take `Cc1ccc(OCC2CC2)cc1Nc1nc(=O)c(F)cn1Cc1cc(F)cc(F)c1` [Compound I-0997]: the pIC50 is 7.00 to 8.00.

As to `COc1ccc(C)c(Nc2nc(=O)c(OC)cn2Cc2cc(F)c(F)c(F)c2)c1` [Compound I-0625], the pIC50 was more than 8.00.

As to `COc1cn(Cc2cc(F)cc(F)c2)c(Nc2cc(-n3cccc3)ccc2C)nc1=O` [Compound I-0655], the pIC50 is 7.00 to 8.00.

In the case of `COc1cn(Cc2ccc(F)c(F)c2)c(Nc2cc(N3CCCC3=O)ccc2C)nc1=O` [Compound I-0646], the pIC50 was 7.00 to 8.00.

Regarding `CCOc1cc(Nc2nc(=O)c(F)cn2Cc2cc(F)cc(F)c2)c(C)cc1F` [Compound I-1032], the pIC50 was 7.00 to 8.00.

Take `C=C(C)c1ccc(C)c(Nc2nc(=O)c(OC)cn2Cc2cc(F)cc(F)c2)c1` [Compound I-0749]: the pIC50 is 7.00 to 8.00.

Regarding `COc1cn(Cc2cc(F)c(F)c(F)c2)c(Nc2cccc3c(=O)[nH]ccc23)nc1=O` [Compound I-0603], the pIC50 was 7.00 to 8.00.

On to `COc1cn(Cc2cc(F)cc(F)c2)c(Nc2cc(Cl)cc3[nH]ccc23)nc1=O` [Compound I-0822], for which the pIC50 is 7.00 to 8.00.

For the compound `COc1cn(Cc2ccccc2)c(Nc2cc(-c3cccnc3)ccc2C)nc1=O` [Compound I-0690], the pIC50 is 7.00 to 8.00.

With `Cc1cc(OC(F)(F)F)ccc1Nc1nc(=O)c(F)cn1Cc1cc(F)cc(F)c1` [Compound I-1102], the pIC50 is 7.00 to 8.00.

On to `COc1cn(Cc2cc(F)cc(F)c2)c(Nc2cc(Cl)ccc2C)nc1=O` [Compound I-0593], for which the pIC50 is 7.00 to 8.00.

As to `COc1ccc(C)c(Nc2nc(=O)c(C#N)cn2Cc2cc(F)c(F)c(F)c2)c1` [Compound I-1151], the pIC50 is 7.00 to 8.00.

Consider `COCc1cn(Cc2cc(F)c(F)c(F)c2)c(Nc2cc(C)c(OC)cc2C)nc1=O` [Compound I-1156], for which the pIC50 was more than 8.00.

With `COc1cn(Cc2ccccc2)c(Nc2cc3c(cc2C)OCO3)nc1=O` [Compound I-0720], the pIC50 is 7.00 to 8.00.

Consider `CCOc1cc(C)c(Nc2nc(=O)c(OC)cn2Cc2cc(F)c(F)c(F)c2)cc1F` [Compound I-0868], for which the pIC50 is 7.00 to 8.00.

In the case of `Cc1cc2[nH]ncc2cc1Nc1nc(=O)c(F)cn1Cc1cc(F)cc(F)c1` [Compound I-1092], the pIC50 is 7.00 to 8.00.

On to `COc1cn(Cc2cccc(F)c2)c(Nc2cccc(C)c2Cl)nc1=O` [Compound I-0643], for which the pIC50 was 7.00 to 8.00.

For the compound `CCc1cc(F)c(OC)cc1Nc1nc(=O)c(OC)cn1Cc1ccccc1` [Compound I-0813], the pIC50 was more than 8.00.

On to `Cc1ccc(-c2ncco2)cc1Nc1nc(=O)c(F)cn1Cc1ccc(F)c(F)c1` [Compound I-0850], for which the pIC50 is more than 8.00.

For `CCOc1cn(Cc2ccc(F)c(Cl)c2)c(Nc2cc(C)c(OC)cc2C)nc1=O` [Compound I-0714], the pIC50 was more than 8.00.

For the compound `COc1cc(Nc2nc(=O)c(F)cn2Cc2ccc(F)c(F)c2)c(C)cc1F` [Compound I-1052], the pIC50 was more than 8.00.

With `Cc1cc2c(cc1Nc1nc(=O)c(F)cn1Cc1cc(F)cc(F)c1)CCO2` [Compound I-1001], the pIC50 was more than 8.00.

On to `Cc1cc(Nc2nc(=O)c(F)cn2Cc2cc(F)cc(F)c2)c(C)nc1OC(F)F` [Compound I-1234], for which the pIC50 was more than 8.00.

Consider `COc1cc(C)cc(Nc2nc(=O)c(OC)cn2Cc2cc(F)c(F)c(F)c2)c1C` [Compound I-0601], for which the pIC50 was more than 8.00.

As to `COc1ccc(Nc2nc(=O)cnn2Cc2ccc(F)c(F)c2)c(C)c1` [Compound I-1272], the pIC50 was more than 8.00.
